Measurements published in the NIST ThermoML archive (doi:10.1021/acs.jced.8b00692).

Tests used:
[1] = xn = mol fraction of the nth substance listed; details: 102 kPa, Liquid, x2 = 0; for viscosity: Concentric cylinders viscometry; for mass density: Vibrating tube method
[2] = 102 kPa, Liquid; for viscosity: Concentric cylinders viscometry; for speed of sound: Frequency=3 MHz, Single path-length method; for mass density: Vibrating tube method

CCCCCCCCCCCCCCCC [hexadecane] + CCCCCCCCC1CCCCC1
[1]
Details | mass density [kg/m3] | viscosity [mPa·s]
293.15 K | 773.37 | 3.47
303.15 K | 766.43 | 2.76
313.15 K | 759.51 | 2.24
323.15 K | 752.61 | 1.86
333.15 K | 745.69 | 1.56
343.15 K | 738.8 | 1.35
353.15 K | 731.9 | 1.15
363.15 K | 724.9 | 1.02
373.15 K | 717.9 | 0.885

CCCCCCCCCCCCCCCC [hexadecane] + CCCCCCCCCC1CCCCC1
[1]
Details | mass density [kg/m3] | viscosity [mPa·s]
293.15 K | 773.37 | 3.47
303.15 K | 766.43 | 2.76
313.15 K | 759.51 | 2.24
323.15 K | 752.61 | 1.86
333.15 K | 745.69 | 1.56
343.15 K | 738.8 | 1.35
353.15 K | 731.9 | 1.15
363.15 K | 724.9 | 1.02
373.15 K | 717.9 | 0.885

CCCCCCCCCCCCCCCC [hexadecane] + CCCCCCCCCCC1CCCCC1
[1]
Details | mass density [kg/m3] | viscosity [mPa·s]
293.15 K | 773.37 | 3.47
303.15 K | 766.43 | 2.76
313.15 K | 759.51 | 2.24
323.15 K | 752.61 | 1.86
333.15 K | 745.69 | 1.56
343.15 K | 738.8 | 1.35
353.15 K | 731.9 | 1.15
363.15 K | 724.9 | 1.02
373.15 K | 717.9 | 0.885

CCCCCCCCCCCCCCCC [hexadecane] + CCCCCCCCCCCCC1CCCCC1
[1]
Details | mass density [kg/m3] | viscosity [mPa·s]
293.15 K | 773.37 | 3.47
303.15 K | 766.43 | 2.76
313.15 K | 759.51 | 2.24
323.15 K | 752.61 | 1.86
333.15 K | 745.69 | 1.56
343.15 K | 738.8 | 1.35
353.15 K | 731.9 | 1.15
363.15 K | 724.9 | 1.02
373.15 K | 717.9 | 0.885

CCCCCCC1CCCCC1 [hexylcyclohexane]
[2]
Details | mass density [kg/m3] | speed of sound [m/s] | viscosity [mPa·s]
293.15 K | 807.71 | 1361 | 2.2
303.15 K | 800.56 | 1322.1 | 1.81
313.15 K | 793.4 | 1284.2 | 1.51
323.15 K | 786.22 | 1247.1 | 1.29
333.15 K | 779.02 | 1211 | 1.09
343.15 K | 771.8 | – | 0.964
353.15 K | 764.6 | – | 0.847
363.15 K | 757.3 | – | 0.758

CCCCCCCCCC1CCCCC1 [nonylcyclohexane]
[2]
Details | mass density [kg/m3] | speed of sound [m/s] | viscosity [mPa·s]
293.15 K | 816.41 | 1397.2 | 4.34
303.15 K | 809.57 | 1359.6 | 3.39
313.15 K | 802.74 | 1322.9 | 2.72
323.15 K | 795.8 | 1287.1 | 2.22
333.15 K | 789.05 | 1252.2 | 1.85
343.15 K | 782.2 | – | 1.57
353.15 K | 775.4 | – | 1.35
363.15 K | 768.5 | – | 1.2
373.15 K | 761.6 | – | 1.03

CCCCCCCCC1CCCCC1 [octylcyclohexane]
[2]
Details | mass density [kg/m3] | speed of sound [m/s] | viscosity [mPa·s]
293.15 K | 814.14 | 1387 | 3.52
303.15 K | 807.22 | 1349.1 | 2.79
313.15 K | 800.29 | 1312.1 | 2.27
323.15 K | 793.36 | 1275.9 | 1.88
333.15 K | 786.42 | 1240.5 | 1.58
343.15 K | 779.5 | – | 1.36
353.15 K | 772.5 | – | 1.16
363.15 K | 765.5 | – | 1.04
373.15 K | 758.5 | – | 0.899

CCCCCC1CCCCC1 [pentylcyclohexane]
[2]
Details | mass density [kg/m3] | speed of sound [m/s] | viscosity [mPa·s]
293.15 K | 804.11 | 1345.9 | 1.7
303.15 K | 796.8 | 1306.4 | 1.42
313.15 K | 789.47 | 1267.8 | 1.21
323.15 K | 782.12 | 1230.1 | 1.04
333.15 K | 774.74 | 1193.4 | 0.895
343.15 K | 767.3 | – | 0.799
353.15 K | 759.9 | – | 0.709
363.15 K | 752.4 | – | 0.637
